Measurements as given in BindingDB's records for patent US11299480 (University of Hawaii, 2022).

Molecular target: Signal transducer and activator of transcription 3 (Homo sapiens, UniProt P40763)
Experiment: In Vitro Assay
Method: Except where indicated, nuclear extracts were pre-incubated with compound for 30 min at room temperature prior to incubation with the radiolabeled probe for 30 min at 30° C. before subjecting to EMSA analysis. Where appropriate, bands corresponding to Stat3:DNA complexes were scanned and quantified for each concentration of compound using ImageJ and plotted as percent of control (DMSO) against concentration of compound, from which the IC50 values were derived.

Chain of Signal transducer and activator of transcription 3 (P40763 whole entry): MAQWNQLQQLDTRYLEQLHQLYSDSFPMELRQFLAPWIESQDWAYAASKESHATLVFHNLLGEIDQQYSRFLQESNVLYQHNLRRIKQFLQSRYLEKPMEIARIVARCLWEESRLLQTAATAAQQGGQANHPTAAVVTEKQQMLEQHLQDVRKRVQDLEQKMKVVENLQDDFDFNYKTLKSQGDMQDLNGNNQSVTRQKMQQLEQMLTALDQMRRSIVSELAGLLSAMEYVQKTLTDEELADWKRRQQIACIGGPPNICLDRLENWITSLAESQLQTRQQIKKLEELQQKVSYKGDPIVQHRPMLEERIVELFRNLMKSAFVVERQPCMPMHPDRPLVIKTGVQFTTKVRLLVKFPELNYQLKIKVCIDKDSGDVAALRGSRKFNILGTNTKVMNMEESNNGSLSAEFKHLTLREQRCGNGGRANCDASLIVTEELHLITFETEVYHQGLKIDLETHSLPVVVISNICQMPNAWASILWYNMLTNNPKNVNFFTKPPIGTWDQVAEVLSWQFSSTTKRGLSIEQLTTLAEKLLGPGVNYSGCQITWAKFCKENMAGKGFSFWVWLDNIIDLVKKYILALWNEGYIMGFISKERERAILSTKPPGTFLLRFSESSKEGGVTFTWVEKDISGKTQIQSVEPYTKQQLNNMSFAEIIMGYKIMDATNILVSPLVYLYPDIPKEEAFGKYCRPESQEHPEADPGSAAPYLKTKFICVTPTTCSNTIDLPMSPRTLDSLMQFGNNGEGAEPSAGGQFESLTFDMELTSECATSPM

IC50: 422 nM
Structure (SMILES): O=C(O)c1ccc(N(Cc2cnc(C3CCCCC3)cn2)C(=O)[C@H]2CCN2S(=O)(=O)c2c(F)c(F)c(F)c(Cl)c2F)cc1O [US11299480, Example 152]
